This assay deals with C-X-C chemokine receptor type 6 (Mus musculus) (UniProt Q9EQ16). Briefly: mouse CXCR6 receptor antagonists, SAR follow-up, selectivity assay for human CXCR6 antagonist project, cell-based, mouse ortholog, CHO-K1, luminescence (AID 651940). As to conditions: CHO-K1 mCXCR6 beta-arrestin PathHunter.

Active and inactive are the calls of the source.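 Rule for the calls: active = IC50 below 50 µM, and active in both the human and murine receptor assays; inactive = the rest.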 Where only a bound is given, the exact number is not on record here.

This is an account of results in PubChem BioAssay AID651940 (Sanford-Burnham Center for Chemical Genomics, 2012).

C-X-C chemokine receptor type 6 (Mus musculus), sequence (Q9EQ16 whole entry, looked up): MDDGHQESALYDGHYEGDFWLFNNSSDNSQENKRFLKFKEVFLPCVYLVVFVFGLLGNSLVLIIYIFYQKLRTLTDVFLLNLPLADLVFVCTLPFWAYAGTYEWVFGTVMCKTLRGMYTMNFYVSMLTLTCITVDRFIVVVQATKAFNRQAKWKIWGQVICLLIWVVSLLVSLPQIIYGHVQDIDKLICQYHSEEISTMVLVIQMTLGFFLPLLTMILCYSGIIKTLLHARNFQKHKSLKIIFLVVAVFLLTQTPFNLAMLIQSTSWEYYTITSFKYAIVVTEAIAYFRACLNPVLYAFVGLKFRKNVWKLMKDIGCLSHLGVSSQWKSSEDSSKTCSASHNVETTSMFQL

On to `COc1ccc(CN2C3CCCC2CC(NC(=O)c2cc(OC)c(OC)c(OC)c2)C3)cc1` (configuration not stated), for which the IC50 (as a rule, the point on the concentration scale where inhibition reaches its midpoint) was > 79 µM (inactive).

Take `COc1cc(C(=O)NC2CC3CCCC(C2)N3CC(=O)Nc2ccccc2)cc(OC)c1OC` (configuration not stated): the IC50 is > 79 µM (inactive).

`COc1cc(C(=O)NC2CC3CCCC(C2)N3CC(=O)Nc2ccc(Cl)cc2)cc(OC)c1OC` (configuration not stated): the IC50 is > 79 µM (inactive).

`COc1ccc(NC(=O)CN2C3CCCC2CC(NC(=O)c2cc(OC)c(OC)c(OC)c2)C3)cc1` (configuration not stated): the IC50 was > 79 µM (inactive).

In the case of `COc1cc(C(=O)NC2CC3CCCC(C2)N3CC(=O)Nc2ccc(C)cc2)cc(OC)c1OC` (configuration not stated), the IC50 result is “inactive”.

`COc1cc(C(=O)NC2CC3CCCC(C2)N3CC(=O)Nc2ccc(F)cc2)cc(OC)c1OC` (configuration not stated): the IC50 was > 79 µM (inactive).

On to `COc1ccccc1NC(=O)CN1C2CCCC1CC(NC(=O)c1cc(OC)c(OC)c(OC)c1)C2` (configuration not stated), for which the IC50 is > 79 µM (inactive).
